Assay results as given in US12214036B2, “Combination therapy comprising AXL/MER and PD-1/PD-L1 inhibitors” (Incyte Corporation, priority 2020, dated 2025).

Target: T1, MER (Homo sapiens, UniProt Q12866)
T1 sequence (Q12866 21-999): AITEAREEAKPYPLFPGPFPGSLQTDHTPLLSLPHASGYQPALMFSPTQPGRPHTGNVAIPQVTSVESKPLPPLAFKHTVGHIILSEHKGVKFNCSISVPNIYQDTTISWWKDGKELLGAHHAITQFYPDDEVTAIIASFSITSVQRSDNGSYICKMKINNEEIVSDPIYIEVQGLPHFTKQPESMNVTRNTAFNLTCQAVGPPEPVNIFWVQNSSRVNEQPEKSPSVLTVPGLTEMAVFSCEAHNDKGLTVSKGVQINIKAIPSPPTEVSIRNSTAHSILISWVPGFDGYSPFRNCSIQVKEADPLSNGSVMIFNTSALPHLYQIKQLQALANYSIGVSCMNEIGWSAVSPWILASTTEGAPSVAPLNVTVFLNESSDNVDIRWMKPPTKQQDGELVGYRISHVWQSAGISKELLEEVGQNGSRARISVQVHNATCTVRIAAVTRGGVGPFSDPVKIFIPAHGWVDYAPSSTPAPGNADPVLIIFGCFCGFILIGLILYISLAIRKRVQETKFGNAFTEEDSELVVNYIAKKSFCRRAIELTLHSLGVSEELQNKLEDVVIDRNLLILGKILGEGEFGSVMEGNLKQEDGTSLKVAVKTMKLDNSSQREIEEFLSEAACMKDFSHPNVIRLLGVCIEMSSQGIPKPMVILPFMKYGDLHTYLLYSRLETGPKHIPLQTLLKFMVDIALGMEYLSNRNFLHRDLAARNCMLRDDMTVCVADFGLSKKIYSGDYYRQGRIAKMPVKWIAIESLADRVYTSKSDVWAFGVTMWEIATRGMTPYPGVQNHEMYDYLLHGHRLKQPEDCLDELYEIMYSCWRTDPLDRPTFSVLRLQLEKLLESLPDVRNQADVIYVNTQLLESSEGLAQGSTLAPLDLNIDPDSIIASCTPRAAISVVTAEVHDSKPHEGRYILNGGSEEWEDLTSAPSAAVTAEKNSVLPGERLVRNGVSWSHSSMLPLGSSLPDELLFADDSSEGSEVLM
Test: Inhibition of MER kinase activity in primary macrophages (Western blot)
Type: cell-based
Conditions: primary macrophages from human PBMCs, 2 hours pretreatment, MAB8912 stimulation, N=2 (FIG. 4); read-out: IC50, pMER inhibition
Protocol: The ability of Compound 1 to modulate the activity of MER kinase in macrophages was evaluated.
Human peripheral blood mononuclear cells (PBMCs) were separated using Ficoll-Paque density gradient centrifugation and any remaining red blood cells (RBC) were lysed using 1×RBC Lysis Buffer (Cell Signaling Technology) for 5 minutes at room temperature. The PBMCs were washed with PBS before being enriched for monocytes using CD14 microbeads positive selection separation following the manufacturer's protocol as specified (AutoMacs Pro, Miltenyi Biotec, Bergisch Gladbach, Germany). […]
Macrophages were allowed to thaw on ice before being lysed with 250 μL/well of 1× Lysis Buffer (Cell Signaling Technology; #9803) and Halt protease and phosphatase inhibitors (ThermoFisher Scientific) for 1 hour at 4° C. […] Protein lysates were quantified using BCA Protein Assay Kit (Pierce, ThermoFisher Scientific; #23225). […] The membranes were washed again before the bands were detected with SuperSignal West Dura Extended Duration Chemiluminescent substrate (ThermoFisher Scientific) and were visualized using the Fluorochem M Digital Imager (Protein Simple, San Jose, Calif.).

Compound: CC(C)C(=O)N1CCC(c2cc(-c3ccc(NC(=O)c4cn(C(C)C)c(=O)n(-c5ccccn5)c4=O)cc3)c3c(N)ncnn23)CC1 [Compound 1, N-(4-(4-Amino-7-(1-isobutyrylpiperidin-4-yl)pyrrolo[1,2-f][1,2,4]triazin-5-yl)phenyl)-1-isopropyl-2,4-dioxo-3-(pyridin-2-yl)-1,2,3,4-tetrahydropyrimidine-5-carboxamide]
- IC50: 1.6 ± 0.4 nM
